Results reported in article PMC10861955 (Heliyon, 2024).

Target: T1, Helicobacter pylori inosine 5′-monophosphate dehydrogenase (HpIMPDH) (Helicobacter pylori, UniProt P56088)
T1 sequence (P56088 1-481): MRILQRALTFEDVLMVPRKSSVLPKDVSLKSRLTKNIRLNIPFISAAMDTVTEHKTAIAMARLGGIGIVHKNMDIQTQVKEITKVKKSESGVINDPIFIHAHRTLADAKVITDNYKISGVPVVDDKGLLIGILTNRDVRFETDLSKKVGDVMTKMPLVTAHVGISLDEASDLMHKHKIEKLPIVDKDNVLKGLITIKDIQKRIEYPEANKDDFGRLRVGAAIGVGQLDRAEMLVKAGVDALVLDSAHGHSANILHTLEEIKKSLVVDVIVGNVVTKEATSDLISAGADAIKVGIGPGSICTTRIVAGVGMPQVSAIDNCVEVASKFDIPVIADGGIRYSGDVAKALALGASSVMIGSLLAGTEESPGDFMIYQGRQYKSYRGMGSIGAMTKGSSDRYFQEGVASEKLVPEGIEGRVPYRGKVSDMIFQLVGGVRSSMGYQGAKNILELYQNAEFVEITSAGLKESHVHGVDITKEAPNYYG
Assay: fluorescence assay of NADH formation, […] HpIMPDH
Assay type: biochemical

SMILES | IC50 [µM]
COc1c2occc2cc2ccc(=O)oc12 [Compound 2, xanthotoxin] | 2.8
COc1cc(OC)c2ccc(=O)oc2c1 [Compound 3, 5,7-di-methoxy-2H-chromen-2-one] | 2.4
